Entries after “also recorded” stand apart in the source; their conditions may differ.
Legend:
[1] = system: murine L1210 cisplatin-sensitive leukemia cells; test: Cytotoxicity: cell-growth inhibition in murine L1210 cisplatin-sensitive leukemia cells, 72-hour drug incubation; assay type: cell-based; details: for IC50: 72-hour drug incubation, read-out: ID50 (50% inhibitory drug concentration); for cytotoxicity compared with cisplatin: in vitro
Method: Studies were performed in vitro to assess the cytotoxicity of trans-[Pt(PyAc-N,O)Cl(NH3)] in comparison to several relevant Pt compounds. Cytotoxicity was monitored by cell-growth inhibition experiments in murine L1210 cisplatin-sensitive leukemia cells. The L1210 cell line has been used as a prognosticator of human antitumor activity for some time [Wolpert-DeFilippes, M. K., "Antitumor Activity of Cisplatin Analogs" in: Cisplatin. Current Status and Developments, Prestayko, A. W., Crooke, S. T., and Carter, S. K., eds, Academic Press, (London) 1980, pp. 183-192.]. A separate, non-treated culture was used as a control for these investigations.

[2] = presence of a planar ligand, trans geometry; cited from earlier work
[3] = in vivo; cited from earlier work
[4] = N,O-chelate formation (displacement of chloride by carboxylate, complex 1 to complex 2); assay type: physicochemical
Text: The details of this synthesis may be found in Example 1 below. The preparation utilizes the anionic N,O-chelating ligand pyridine-2-yl-acetate (PyAc), which introduces a carboxylate donor cis to the nitrogen atom of the planar ligand. The bidentate ligand was used in its O-protected form, i.e., the corresponding methylester (PyAcMe). Formation of the N,O-chelate was achieved via the intermediate dichloro form, trans-[PtCl2 (NH3)(PyAcH)].H2 O (complex 1.H2 O) at neutral pH.
For the purposes of this invention, it should be further noted that the form for administration to patients may be either complex 1 or complex 2, since the former would spontaneously form the N-O chelate under physiological conditions.

Compound | IC50 [1] [nM] | cytotoxicity compared with cisplatin [1] | also measured
N.N.[Cl][Pt][Cl] [cisplatin, cis-[PtCl2 (NH3)2]] | 430 | – | –
N.[Cl][Pt][Cl].c1ccc2ncccc2c1 [trans-[PtCl2 (NH3)(quinoline)]] | – | – | in vitro cytotoxicity, effect of planar ligand [2]: dramatically enhances the in vitro cytotoxicity
N.N.[Cl][Pt+2][Cl] [transplatin, trans-[PtCl2 (NH3)2]] | 14000 | inactive | therapeutic/biological activity [3]: biologically inactive; also recorded: therapeutically inactive
cis-[Pt(PyAc-N,O)Cl(NH3)] | > 20000 | inactive | cytotoxicity compared with cisplatin ([1]; listed as cis-isomer): must be considered inactive
trans-[Pt(PyAc-N,O)Cl(NH3)] [Complex 2] | 880 | comparably cytotoxic to cisplatin itself | solubility in water: 4 mmol 1-1
trans-[PtCl2 (NH3)(PyAcH)] [Complex 1] | – | – | displacement of chloride by carboxylate ([4]; e.g. in 10^-2 M HCl): remarkably facile; formation of complex 2 from complex 1 ([4]; pH values greater than 2): readily formed
